{"source": "patent US7829110B2", "about": "“Surgical implant comprising an anabolic and a corticosteroid” (Ethicon, Inc., priority 2003, dated 2010)", "test_system": "fibroblast (human, dermal)", "experiment": "fibroblast contraction (human, dermal)", "type": "cell-based", "settings": "human dermal fibroblasts; even at low doses", "from_the_text": "Cortisone prevents fibroblast contraction (human, dermal) even at low doses (below 10^−6 M)"}
{"smiles": "C[C@]12CCC(=O)C=C1CC[C@@H]1[C@@H]2C(=O)C[C@@]2(C)[C@H]1CC[C@]2(O)C(=O)CO", "note": "[Cortisone, cortisone]", "values": [{"measurement": "dose preventing fibroblast contraction", "result": "below 10^−6 M"}]}
